From publication PMC6595003, “Insights into real-time chemical processes in a calcium sensor protein-directed dynamic library” (Nature Communications, 2019)
Several values for one entry are separate records, joined by “and”; a condition that tells them apart may be missing. Equal entries are not always repeated.

Key:
[1] = Parallel artificial membrane permeability assay (PAMPA-BBB); type: in vitro ADME; conditions: for Pe (10-6 cm s-1) Experimental 1 / Pe (10-6 cm s-1) Experimental 2 / Pe (10-6 cm s-1) Experimental 3: source data
Description: The PAMPA methodology is a high-throughput technique to predict passive permeability through biological membranes that employs a brain lipid porcine as membrane. […]
From this equation and following the pattern established in the literature for BBB permeation prediction2 we could classify compounds as CNS + when they present a permeability > 4.50 x 10-6 cm s-1. Source data are provided as a Source Data file. […]
Parallel artificial membrane permeability assays. Prediction of the brain penetration was evaluated using a parallel artificial membrane permeability assay (PAMPA).4 Ten commercial drugs, phosphate buffer saline solution at pH 7.4 (PBS). DMSO and dodecane were purchased from Sigma, Across organics, Aldrich and Fluka. The porcine […]
plate was a 96-well filtrate plate (Multiscreen® IP Sterile Plate PDVF membrane, pore […]
MAIPS4510) and the acceptor plate was an indented 96-well plate (Multiscreen®, catalog no. MAMCS9610) both from Millipore. Filter PDVF […]
membrane units (diameter 30 mm, pore size 0.45 µm) from Symta were used to filter the samples. A 96-well plate UV reader (Thermoscientific, Multiskan spectrum) was used for the UV measurements.

[2] = target: T1, dNCS-1 (Drosophila melanogaster, UniProt Q9VWX8); experiment: Protein-directed DCL, HPLC-MS relative peak area with and without dNCS-1; conditions: for RPA, Blank DCL / RPA, Templated DCL: as fraction of total area; for RPA, Templated DCL: with dNCS-1; for RPA (%) with protein (templated DCL): relative peak area in presence of dNCS-1; for RPA (%) without protein (blank DCL): relative peak area, sum of all peak areas set to 100%; for RPA (%), Blank DCL: sheet Supplementary Figure 10; for RPA (%), Templated DCL: sheet Supplementary Figure 10, with dNCS-1
T1 construct: made in house; host or cells: E. coli
T1 sequence (Q9VWX8 1-187): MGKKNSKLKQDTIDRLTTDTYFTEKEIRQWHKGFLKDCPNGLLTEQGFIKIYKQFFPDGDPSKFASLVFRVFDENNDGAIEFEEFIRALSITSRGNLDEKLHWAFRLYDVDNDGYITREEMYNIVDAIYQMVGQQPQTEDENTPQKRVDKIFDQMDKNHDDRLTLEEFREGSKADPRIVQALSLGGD
Method: The reversibility of the DCL was evident, since an identical equilibrium distribution to that shown in Fig. 4a was obtained when two different starting points were employed. The observed degree of amplification was 3b > 3e ≥ 3d > 3a. The precise composition of the DCL (with and without dNCS-1), was assessed by measuring the relative peak area (RPA). Indeed, the normalized change of RPA was used to quantify the protein influence in the final outcome (Supplementary Figs. 9, 10 and Supplementary Tables 1, 2 and 3)[28]. […] Note that compounds 3a–3e can exist as E/Z isomers of the C = N bond. […].
Aldehyde 1 (1.2 μL, 50 mM, DMSO), the five acylhydrazides 2a–2e (5 × 3.6 μL, 50 mM, DMSO), p-anisidine (1 μL, 12 M, DMSO) and buffer 20 mM Tris, 0.5 M NaCl and 1 mM CaCl2, 1 mM DTT at pH 7.4 (750 μL) in 3.3 % DMSO. The mixture was stabilized in 5 h at 4 °C. HPLC analysis was performed.
Aldehyde 1 (1.2 μL, 50 mM, DMSO), the five acylhydrazides 2a–2e (5 × 3.6 μL, 50 mM, DMSO), p-anisidine (1 μL, 12 mM, DMSO) and dNCS-1 in buffer 20 mM Tris, 0.5 M NaCl and 1 mM CaCl2, 1 mM DTT at pH 7.4 (66.7 μM, 750 μL, 1 eq.). The experiment is in 3.3% DMSO. The mixture was stabilized for 5 h at 4 °C. Then, dNCS-1 was removed by ultrafiltration using an Amicon Ultra filter (0.5–10 KDa). HPLC analysis was performed and the traces were compared with the blank composition.
Supplementary Figure 9. Relative Peak Area of the DCL with and without dNCS1. Aldehyde
1 (1.2 µL, 50 mM), 2a-e (3.6 µL, 50 mM), catalyst (1 µL, 12 M), dNCS-1:1 [1:1], tris buffer (20
mM, pH 7.4), 1 mM CaCl2, 0.5 M NaCl, 1 mM DTT, T = 4 °C, 2% DM SO. Mean relative peak
area (RPA) of each acylhydrazone of the library in the absence (blank) and presence of dNCS-1.
Error bars indicate standard deviation (SD) over three experiments. The calculation is set by the
sum of all peak areas to 100% and assigning each peak its percentage. Source data are provided
R P A N o rm aliz ed V a riation
Supplementary Figure 10. RPA normalized of variation of DCL with and without dNCS1.
Aldehyde 1 (1.2 µL, 50 mM), 2a-e (3.6 µL, 50 mM), catalyst (1 µL, 12 M), dNCS-1:1 [1:1], tris
buffer (20 mM, pH 7.4), 1 mM CaCl2, 0.5 M NaCl, 1 mM DTT, T = 4 °C, 2% DM SO. Error
bars indicate SD over three experiments. Source data are provided as a Source Data file.

[3] = PAMPA-BBB, pH 7.4, 5% DMSO, 2 h 30 min at 25 °C, mean ± SD
[4] = pig, PAMPA-BBB, pH 7.4, 5% DMSO, 2 h 30 min at 25 °C, mean ± SD, read-out: Pe, in vitro permeability

Row | Pe, in vitro permeability [1, 3] | Papp at 2.5 h [1, 4] | Pe (10-6 cm s-1) Experimental 1 [1] | Pe (10-6 cm s-1) Experimental 2 [1] | Pe (10-6 cm s-1) Experimental 3 [1] | RPA, Blank DCL [2] | RPA, Templated DCL [2] | RPA (%) with protein (templated DCL) [2] | RPA (%) without protein (blank DCL) [2] | RPA (%), Blank DCL [2] | RPA (%), Templated DCL [2] | Papp at 2.5 h, 0.04 mg/mL [1, 4] | Prediction (penetration in the CNS) ([1]; Supplementary Table 5) | SMILES
1 | did not show good permeability values | 2.5 ± 0.6 ×10⁻⁶ cm/s | 2.5 10-6 cm s-1 | 2.04 10-6 cm s-1 | 2.94 10-6 cm s-1 | 0.1114 | 0.0839 | 8.4% and 8.39% | 11.1% and 11.1444% | 11.1% | 8.39% |  |  | O=C(NN=Cc1ccc([N+](=O)[O-])c(O)c1)C(O)c1ccccc1 (mixture of isomers) [3d]
2 |  |  | 12.9 10-6 cm s-1 | 12.33 10-6 cm s-1 | 13.52 10-6 cm s-1 | 0.1921 | 0.2944 | 29.4% and 29.4401% | 19.2% and 19.208% | 19.2% | 29.4% | 12.9 ± 0.8 ×10⁻⁶ cm/s |  | O=C(Cc1c[nH]c2ccccc12)NN=Cc1ccc([N+](=O)[O-])c(O)c1 (mixture of isomers) [3b]
3 | did not show good permeability values | 1.7 ± 0.7 ×10⁻⁶ cm/s | 1.7 10-6 cm s-1 | 1.25 10-6 cm s-1 | 2.25 10-6 cm s-1 | 0.2727 | 0.1875 | 18.8% and 18.7508% | 27.3% and 27.2702% | 27.3% | 18.8% |  | CNS - | O=C(N/N=C/c1ccc([N+](=O)[O-])c(O)c1)c1ccco1 [3a]
